*1 amine or outer side, *2 acyl side, *3 side chain or, on linkers, in order; H or OH if unused. Primed or numbered codes have the meaning given here. Where no end group is shown, it is not given here. Side-chain parts run from the residue outwards. [ ]: non-standard residue; d: D form. The star is where a group is joined. C18 diacid = O=C(O)CCCCCCCCCCCCCCCCC(=O)*; C16 diacid = O=C(O)CCCCCCCCCCCCCCC(=O)*; γGlu = O=C(O)[C@H](CCC(=O)[*:2])N[*:1]; Stearoyl = CCCCCCCCCCCCCCCCCC(=O)*; Palmitoyl = CCCCCCCCCCCCCCCC(=O)*; Nle = CCCC[C@H](N)C(=O)O; PEG2′ = not defined here; Aib = CC(C)(N)C(=O)O
The substances below were run on Hepatic stellate cell strain LX-2 (assay: In vitro inhibition of hepatic fibrosis: expression of LX-2 cell activation marker α-SMA (Western Blot, α-SMA/β-actin)). Conditions: LX-2 cells.
Assay type: cell-based, human
Description: Hepatic stellate cell strain LX-2 was selected to study and observe the effect of different doses of test substances on the expression of LX-2 cell activation marker […]. Hepatic stellate cell LX-2 was laid on 35 mm cell culture plate, cultured with DMEM (high glucose)+10% FBS+1% double-antibody culture medium (Thermo Fisher), placed overnight when the cells grew to 70% convergence at 37° C. and under the condition of 5% CO2, and treated with the above compounds 1-37 (dissolved in PBS) for 48 hours the next day morning to extract cell protein, carry out Western Blot, and take β-actin as internal reference and analyze the expression quantities of α-SMA and β-actin by a gray level of Image J 1.50i. PBS with the same volume as that in experimental group was added in negative control. […] The integrating gray level of α-SMA/β-actin in the negative control group was 100% to analyze the in vitro inhibition activity of hepatic fibrosis of tested polypeptide.

Row | Substance | Inhibition of LX-2 cell activation marker α-SMA (in words, from Table 2)
1 | His-(D-Ser)-Gln-Gly-Thr-Phe-Thr-Ser-Asp-Tyr-Ser-Lys(PEG2-PEG2-γGlu-CO(CH2)16CO2H)-Lys-Leu-Asp-Aib-Arg-Arg-Ala-Gln-Asp-Phe-Val-Gln-Trp-Leu-Met-Asn-Thr-Gly-Gly-Pro-Ser-Ser-Gly-Ala-Pro-Pro-Pro-Ser-NH2 (H[dS]QGTFTSDYSK([PEG2′-PEG2′-γGlu-C18 diacid])KLD[Aib]RRAQDFVQWLMNTGGPSSGAPPPS-NH2) [Compound 20] | obviously reduce
2 | His-(D-Ser)-Gln-Gly-Thr-Phe-Thr-Ser-Asp-Tyr-Ser-Lys-Tyr-Leu-Asp-Lys(PEG2-PEG2-CO(CH2)16CO2H)-Arg-Arg-Ala-Gln-Asp-Phe-Val-Gln-Trp-Leu-Met-Asn-Thr-Gly-Gly-Pro-Ser-Ser-Gly-Ala-Pro-Pro-Pro-Ser-NH2 (H[dS]QGTFTSDYSKYLDK([PEG2′-PEG2′-C18 diacid])RRAQDFVQWLMNTGGPSSGAPPPS-NH2) [Compound 35] | obviously reduce
3 | His-(D-Ser)-Gln-Gly-Thr-Phe-Thr-Ser-Asp-Tyr-Ser-Lys-Tyr-Leu-Asp-Lys(PEG2-PEG2-γGlu-CO(CH2)16CH3)-Arg-Arg-Ala-Gln-Asp-Phe-Val-Gln-Trp-Leu-Met-Asn-Thr-Gly-Gly-Pro-Ser-Ser-Gly-Ala-Pro-Pro-Pro-Ser-NH2 (H[dS]QGTFTSDYSKYLDK([PEG2′-PEG2′-γGlu-Stearoyl])RRAQDFVQWLMNTGGPSSGAPPPS-NH2) [Compound 36] | obviously reduce

Same assay, conditions: LX-2 cells, 1 μM, 48 hours, negative control = 100%

Row | Substance | Relative expression of α-SMA (α-SMA/β-actin, %)
4 | His-(D-Ser)-Gln-Gly-Thr-Phe-Thr-Ser-Asp-Tyr-Ser-Lys(PEG2-PEG2-γGlu-CO(CH2)16CO2H)-Lys-Leu-Asp-Aib-Arg-Arg-Ala-Gln-Asp-Phe-Val-Gln-Trp-Leu-Met-Asn-Thr-Gly-Gly-Pro-Ser-Ser-Gly-Ala-Pro-Pro-Pro-Ser-NH2 (H[dS]QGTFTSDYSK([PEG2′-PEG2′-γGlu-C18 diacid])KLD[Aib]RRAQDFVQWLMNTGGPSSGAPPPS-NH2) [Compound 20] | 68.39%
5 | His-(D-Ser)-Gln-Gly-Thr-Phe-Thr-Ser-Asp-Tyr-Ser-Lys-Tyr-Leu-Asp-Aib-Lys(PEG2-PEG2-CO(CH2)16CO2H)-Arg-Ala-Gln-Asp-Phe-Val-Gln-Trp-Leu-Met-Asn-Thr-Gly-Gly-Pro-Ser-Ser-Gly-Ala-Pro-Pro-Pro-Ser-NH2 (H[dS]QGTFTSDYSKYLD[Aib]K([PEG2′-PEG2′-C18 diacid])RAQDFVQWLMNTGGPSSGAPPPS-NH2) [Compound 10] | 71.49%
6 | His-(D-Ser)-Gln-Gly-Thr-Phe-Thr-Ser-Asp-Tyr-Ser-Lys-Tyr-Leu-Asp-Aib-Lys(PEG2-PEG2-γGlu-CO(CH2)14CH3)-Arg-Ala-Gln-Asp-Phe-Val-Gln-Trp-Leu-Met-Asn-Thr-Gly-Gly-Pro-Ser-Ser-Gly-Ala-Pro-Pro-Pro-Ser-NH2 (H[dS]QGTFTSDYSKYLD[Aib]K([PEG2′-PEG2′-γGlu-Palmitoyl])RAQDFVQWLMNTGGPSSGAPPPS-NH2) [Compound 33] | 95.45%
7 | His-(D-Ser)-Gln-Gly-Thr-Phe-Thr-Ser-Asp-Tyr-Ser-Lys-Tyr-Leu-Asp-Aib-Lys(PEG2-PEG2-γGlu-CO(CH2)16CO2H)-Arg-Ala-Gln-Asp-Phe-Val-Gln-Trp-Leu-Met-Asn-Thr-Gly-Gly-Pro-Ser-Ser-Gly-Ala-Pro-Pro-Pro-Ser-NH2 (H[dS]QGTFTSDYSKYLD[Aib]K([PEG2′-PEG2′-γGlu-C18 diacid])RAQDFVQWLMNTGGPSSGAPPPS-NH2) [Compound 7] | 73.52%
8 | His-(D-Ser)-Gln-Gly-Thr-Phe-Thr-Ser-Asp-Tyr-Ser-Lys-Tyr-Leu-Asp-Glu-Lys-Ala-Ala-Lys(PEG2-PEG2-γGlu-CO(CH2)14CH3)-Glu-Phe-Ile-Glu-Trp-Leu-Leu-Arg-Ala-NH2 (H[dS]QGTFTSDYSKYLDEKAAK([PEG2′-PEG2′-γGlu-Palmitoyl])EFIEWLLRA-NH2) [Compound 23] | 95.91%
9 | His-(D-Ser)-Gln-Gly-Thr-Phe-Thr-Ser-Asp-Tyr-Ser-Lys-Tyr-Leu-Asp-Glu-Lys-Ala-Ala-Lys(PEG2-PEG2-γGlu-CO(CH2)14CH3)-Glu-Phe-Ile-Glu-Trp-Leu-Leu-Asn-Gly-Gly-Pro-Ser-Ser-Gly-Ala-Pro-Pro-Pro-Ser-NH2 (H[dS]QGTFTSDYSKYLDEKAAK([PEG2′-PEG2′-γGlu-Palmitoyl])EFIEWLLNGGPSSGAPPPS-NH2) [Compound 29] | 89.36%
10 | His-(D-Ser)-Gln-Gly-Thr-Phe-Thr-Ser-Asp-Tyr-Ser-Lys-Tyr-Leu-Asp-Glu-Lys-Ala-Ala-Lys(PEG2-PEG2-γGlu-CO(CH2)14CO2H)-Glu-Phe-Ile-Glu-Trp-Leu-Leu-Asn-Gly-Gly-Pro-Ser-Ser-Gly-Ala-Pro-Pro-Pro-Ser-NH2 (H[dS]QGTFTSDYSKYLDEKAAK([PEG2′-PEG2′-γGlu-C16 diacid])EFIEWLLNGGPSSGAPPPS-NH2) [Compound 27] | 92.34%
11 | His-(D-Ser)-Gln-Gly-Thr-Phe-Thr-Ser-Asp-Tyr-Ser-Lys-Tyr-Leu-Asp-Glu-Lys-Ala-Ala-Lys(PEG2-PEG2-γGlu-CO(CH2)16CH3)-Glu-Phe-Ile-Glu-Trp-Leu-Leu-Arg-Ala-NH2 (H[dS]QGTFTSDYSKYLDEKAAK([PEG2′-PEG2′-γGlu-Stearoyl])EFIEWLLRA-NH2) [Compound 24] | 82.42%
12 | His-(D-Ser)-Gln-Gly-Thr-Phe-Thr-Ser-Asp-Tyr-Ser-Lys-Tyr-Leu-Asp-Glu-Lys-Ala-Ala-Lys(PEG2-PEG2-γGlu-CO(CH2)16CH3)-Glu-Phe-Ile-Glu-Trp-Leu-Leu-Asn-Gly-Gly-Pro-Ser-Ser-Gly-Ala-Pro-Pro-Pro-Ser-NH2 (H[dS]QGTFTSDYSKYLDEKAAK([PEG2′-PEG2′-γGlu-Stearoyl])EFIEWLLNGGPSSGAPPPS-NH2) [Compound 28] | 87.62%
13 | His-(D-Ser)-Gln-Gly-Thr-Phe-Thr-Ser-Asp-Tyr-Ser-Lys-Tyr-Leu-Asp-Glu-Lys-Ala-Ala-Lys(PEG2-PEG2-γGlu-CO(CH2)16CO2H)-Glu-Phe-Ile-Glu-Trp-Leu-Leu-Arg-Ala-NH2 (H[dS]QGTFTSDYSKYLDEKAAK([PEG2′-PEG2′-γGlu-C18 diacid])EFIEWLLRA-NH2) [Compound 18] | 75.60%
14 | His-(D-Ser)-Gln-Gly-Thr-Phe-Thr-Ser-Asp-Tyr-Ser-Lys-Tyr-Leu-Asp-Glu-Lys-Ala-Ala-Lys(PEG2-PEG2-γGlu-CO(CH2)16CO2H)-Glu-Phe-Ile-Glu-Trp-Leu-Leu-Asn-Gly-Gly-Pro-Ser-Ser-Gly-Ala-Pro-Pro-Pro-Ser-NH2 (H[dS]QGTFTSDYSKYLDEKAAK([PEG2′-PEG2′-γGlu-C18 diacid])EFIEWLLNGGPSSGAPPPS-NH2) [Compound 26] | 94.44%
15 | His-(D-Ser)-Gln-Gly-Thr-Phe-Thr-Ser-Asp-Tyr-Ser-Lys-Tyr-Leu-Asp-Lys(PEG2-PEG2-CO(CH2)16CO2H)-Arg-Arg-Ala-Gln-Asp-Phe-Val-Gln-Trp-Leu-Met-Asn-Thr-Gly-Gly-Pro-Ser-Ser-Gly-Ala-Pro-Pro-Pro-Ser-NH2 (H[dS]QGTFTSDYSKYLDK([PEG2′-PEG2′-C18 diacid])RRAQDFVQWLMNTGGPSSGAPPPS-NH2) [Compound 35] | 61.28%
16 | His-(D-Ser)-Gln-Gly-Thr-Phe-Thr-Ser-Asp-Tyr-Ser-Lys-Tyr-Leu-Asp-Lys(PEG2-PEG2-γGlu-CO(CH2)14CH3)-Arg-Arg-Ala-Gln-Asp-Phe-Val-Gln-Trp-Leu-Nle-Asn-Thr-Gly-Gly-Pro-Ser-Ser-Gly-Ala-Pro-Pro-Pro-Ser-NH2 (H[dS]QGTFTSDYSKYLDK([PEG2′-PEG2′-γGlu-Palmitoyl])RRAQDFVQWL[Nle]NTGGPSSGAPPPS-NH2) [Compound 37] | 42.45%
17 | His-(D-Ser)-Gln-Gly-Thr-Phe-Thr-Ser-Asp-Tyr-Ser-Lys-Tyr-Leu-Asp-Lys(PEG2-PEG2-γGlu-CO(CH2)16CH3)-Arg-Arg-Ala-Gln-Asp-Phe-Val-Gln-Trp-Leu-Met-Asn-Thr-Gly-Gly-Pro-Ser-Ser-Gly-Ala-Pro-Pro-Pro-Ser-NH2 (H[dS]QGTFTSDYSKYLDK([PEG2′-PEG2′-γGlu-Stearoyl])RRAQDFVQWLMNTGGPSSGAPPPS-NH2) [Compound 36] | 62.49%
18 | His-(D-Ser)-Gln-Gly-Thr-Phe-Thr-Ser-Asp-Tyr-Ser-Lys-Tyr-Leu-Asp-Lys(PEG2-PEG2-γGlu-CO(CH2)16CO2H)-Arg-Arg-Ala-Gln-Asp-Phe-Val-Gln-Trp-Leu-Met-Asn-Thr-Gly-Gly-Pro-Ser-Ser-Gly-Ala-Pro-Pro-Pro-Ser-NH2 (H[dS]QGTFTSDYSKYLDK([PEG2′-PEG2′-γGlu-C18 diacid])RRAQDFVQWLMNTGGPSSGAPPPS-NH2) [Compound 34] | 88.18%
19 | His-(D-Ser)-Gln-Gly-Thr-Phe-Thr-Ser-Asp-Tyr-Ser-Lys-Tyr-Leu-Asp-Ser-Lys(PEG2-PEG2-γGlu-CO(CH2)16CH3)-Ala-Ala-His-Asp-Phe-Val-Glu-Trp-Leu-Leu-Arg-Ala-NH2 (H[dS]QGTFTSDYSKYLDSK([PEG2′-PEG2′-γGlu-Stearoyl])AAHDFVEWLLRA-NH2) [Compound 25] | 93.34%
20 | His-(D-Ser)-Gln-Gly-Thr-Phe-Thr-Ser-Asp-Tyr-Ser-Lys-Tyr-Leu-Asp-Ser-Lys(PEG2-PEG2-γGlu-CO(CH2)16CO2H)-Ala-Ala-His-Asp-Phe-Val-Glu-Trp-Leu-Leu-Arg-Ala-NH2 (H[dS]QGTFTSDYSKYLDSK([PEG2′-PEG2′-γGlu-C18 diacid])AAHDFVEWLLRA-NH2) [Compound 17] | 75.38%
21 | His-(D-Ser)-Gln-Gly-Thr-Phe-Thr-Ser-Asp-Tyr-Ser-Lys-Tyr-Leu-Asp-Ser-Lys(PEG2-PEG2-γGlu-CO(CH2)16CO2H)-Ala-Ala-His-Asp-Phe-Val-Glu-Trp-Leu-Leu-Asn-Gly-Gly-Pro-Ser-Ser-Gly-Ala-Pro-Pro-Pro-Ser-NH2 (H[dS]QGTFTSDYSKYLDSK([PEG2′-PEG2′-γGlu-C18 diacid])AAHDFVEWLLNGGPSSGAPPPS-NH2) [Compound 21] | 97.66%
22 | His-Aib-Gln-Gly-Thr-Phe-Thr-Ser-Asp-Lys(PEG2-PEG2-γGlu-CO(CH2)14CH3)-Ser-Lys-Tyr-Leu-Asp-Aib-Arg-Arg-Ala-Gln-Asp-Phe-Val-Gln-Trp-Leu-Leu-Asp-Gly-Gly-Pro-Ser-Ser-Gly-Ala-Pro-Pro-Pro-Ser-NH2 (H[Aib]QGTFTSDK([PEG2′-PEG2′-γGlu-Palmitoyl])SKYLD[Aib]RRAQDFVQWLLDGGPSSGAPPPS-NH2) [Compound 8] | 80.25%
